# Laboratory results published in patent US5190741A, “Agents for diagnosing and treating melanomas, aromatic halogenated derivatives usable as such agents and their preparation” (Institut National de la Sante et de la Recherche Medicale …, priority 1989, dated 1993).
# Where two headings read alike, the source gives them in different places.
# Key:
# Assay type in all cases: in vivo, mouse
# [1] = Tissue distribution in C57 BL6 mice bearing B16; conditions: mouse, iv, 3 umol/animal
# Procedure: (§1) The study of the tissue distribution of the ^125 I labelled compounds was performed in mice bearing grafted melanomas (cf. autoradiograms above). […] The animals are sacrificed at different time intervals of 1 to 24 hours after the injection. The blood is collected and the principal organs are excised. Aliquots are weighed and the radioactivity of the samples is measured in a […] 1191 counter (analytic tracer). The counting yield for iodine 125 is 60%. The results are expressed: as a percentage of the injected dose bound per g of tissue (% ID/g); in the form of the ratios [formula] This ratio reflects more precisely the selectivity of a molecule for an organ (tables 2, 4, 6, 8, 10 and 12).
# B16 murine melanoma = experiment: Tissue distribution in C57 BL6 mice bearing B16
# Procedure: as §1
# B16 melanoma = experiment: Scintillation imaging, C57 BL6 mice bearing B16; conditions: 3 to 17 h after injection
# Excerpt: The mice bearing grafted tumors are anesthetized by the i.p. injection of sodium pentobarbital 1/5 and immobilized under a scintillation camera (Gammatome II, CGR) equipped with a pinhole 3-360 collimator, sensitivity 3.2 10^-4.
# C57 BL6 bearing B16 melanomas at different stages of development.
# The scanning observations have also been carried out after the injection of B into the following mice:
# C57 BL6 bearing the B16 melanoma
# [2] = kidney, read-out: kidney % ID/g
# [3] = muscle, read-out: muscle % ID/g
# [4] = plasma, read-out: plasma % ID/g
compound,measurement,setting,value
"CCNCCNC(=O)c1ccc(I)cc1 [Derivative B, N-(2-ethylaminoethyl) 4-iodo benzamide]",tissue uptake at 1 h,"[1]; blood, read-out: blood % ID/g",1.31 %ID/g
same,tissue uptake at 2 h,"[1]; blood, read-out: blood % ID/g",0.67 %ID/g
same,tissue uptake at 4 h,"[1]; blood, read-out: blood % ID/g",0.27 %ID/g
same,tissue uptake at 6 h,"[1]; blood, read-out: blood % ID/g",0.14 %ID/g
same,tissue uptake at 24 h,"[1]; blood, read-out: blood % ID/g",0.03 %ID/g
same,tissue uptake at 1 h,"[1]; brain, read-out: brain % ID/g",3.26 %ID/g
same,tissue uptake at 2 h,"[1]; brain, read-out: brain % ID/g",2.09 %ID/g
same,tissue uptake at 4 h,"[1]; brain, read-out: brain % ID/g",1.17 %ID/g
same,tissue uptake at 6 h,"[1]; brain, read-out: brain % ID/g",0.5 %ID/g
same,tissue uptake at 24 h,"[1]; brain, read-out: brain % ID/g",0.01 %ID/g
same,tissue uptake at 1 h,"[1]; eye, read-out: eye % ID/g",0.45 %ID/g
same,tissue uptake at 2 h,"[1]; eye, read-out: eye % ID/g",0.43 %ID/g
same,tissue uptake at 4 h,"[1]; eye, read-out: eye % ID/g",0.42 %ID/g
same,tissue uptake at 6 h,"[1]; eye, read-out: eye % ID/g",0.38 %ID/g
same,tissue uptake at 24 h,"[1]; eye, read-out: eye % ID/g",0.24 %ID/g
same,tissue uptake at 1 h,[1]; [2],14.4 %ID/g
same,tissue uptake at 2 h,[1]; [2],8.64 %ID/g
same,tissue uptake at 4 h,[1]; [2],4.42 %ID/g
same,tissue uptake at 6 h,[1]; [2],1.86 %ID/g
same,tissue uptake at 24 h,[1]; [2],0.16 %ID/g
same,tissue uptake at 1 h,"[1]; liver, read-out: liver % ID/g",6.96 %ID/g
same,tissue uptake at 2 h,"[1]; liver, read-out: liver % ID/g",3.72 %ID/g
same,tissue uptake at 4 h,"[1]; liver, read-out: liver % ID/g",2.05 %ID/g
same,tissue uptake at 6 h,"[1]; liver, read-out: liver % ID/g",0.96 %ID/g
same,tissue uptake at 24 h,"[1]; liver, read-out: liver % ID/g",0.22 %ID/g
same,tissue uptake at 1 h,"[1]; lung, read-out: lungs % ID/g",14.4 %ID/g
same,tissue uptake at 2 h,"[1]; lung, read-out: lungs % ID/g",8 %ID/g
same,tissue uptake at 4 h,"[1]; lung, read-out: lungs % ID/g",4.49 %ID/g
same,tissue uptake at 6 h,"[1]; lung, read-out: lungs % ID/g",2.1 %ID/g
same,tissue uptake at 24 h,"[1]; lung, read-out: lungs % ID/g",0.05 %ID/g
same,tissue uptake at 1 h,[1]; [3],2.55 %ID/g
same,tissue uptake at 2 h,[1]; [3],1.33 %ID/g
same,tissue uptake at 4 h,[1]; [3],0.67 %ID/g
same,tissue uptake at 6 h,[1]; [3],0.2 %ID/g
same,tissue uptake at 24 h,[1]; [3],0.02 %ID/g
same,tissue uptake at 1 h,[1]; [4],0.73 %ID/g
same,tissue uptake at 2 h,[1]; [4],0.4 %ID/g
same,tissue uptake at 4 h,[1]; [4],0.21 %ID/g
same,tissue uptake at 6 h,[1]; [4],0.13 %ID/g
same,tissue uptake at 24 h,[1]; [4],0.02 %ID/g
same,tissue uptake at 1 h,"[1]; tumor, read-out: tumor % ID/g",6.03 %ID/g
same,tissue uptake at 2 h,"[1]; tumor, read-out: tumor % ID/g",5.73 %ID/g
same,tissue uptake at 4 h,"[1]; tumor, read-out: tumor % ID/g",4.36 %ID/g
same,tissue uptake at 6 h,"[1]; tumor, read-out: tumor % ID/g",4.69 %ID/g
same,tissue uptake at 24 h,"[1]; tumor, read-out: tumor % ID/g",0.49 %ID/g
same,intratumoral concentrations and ratios compared with A,"B16 murine melanoma; 4 to 8 h, melanic melanomas, preliminary",markedly higher than those observed with A
same,brain/blood ratio,B16 murine melanoma; 1 h,"2,48"
same,eye/blood ratio,B16 murine melanoma; 1 h,"9,70"
same,kidney/blood ratio,B16 murine melanoma; 1 h,"10,92"
same,liver/blood ratio,B16 murine melanoma; 1 h,"5,32"
same,lungs/blood ratio,B16 murine melanoma; 1 h,"11,00"
same,muscle/blood ratio,B16 murine melanoma; 1 h,"1,95"
same,plasma/blood ratio,B16 murine melanoma; 1 h,"0,56"
same,tumor/blood ratio,B16 murine melanoma; 1 h,"4,70"
same,brain/blood ratio,B16 murine melanoma; 2 h,"3,11"
same,eye/blood ratio,B16 murine melanoma; 2 h,"17,50"
same,kidney/blood ratio,B16 murine melanoma; 2 h,"12,82"
same,liver/blood ratio,B16 murine melanoma; 2 h,"5,55"
same,lungs/blood ratio,B16 murine melanoma; 2 h,"11,94"
same,muscle/blood ratio,B16 murine melanoma; 2 h,"1,96"
same,plasma/blood ratio,B16 murine melanoma; 2 h,"0,60"
same,tumor/blood ratio,B16 murine melanoma; 2 h,"8,51"
same,brain/blood ratio,B16 murine melanoma; 4 h,"4,33"
same,eye/blood ratio,B16 murine melanoma; 4 h,"39,70"
same,kidney/blood ratio,B16 murine melanoma; 4 h,"16,38"
same,liver/blood ratio,B16 murine melanoma; 4 h,"7,58"
same,lungs/blood ratio,B16 murine melanoma; 4 h,"16,64"
same,muscle/blood ratio,B16 murine melanoma; 4 h,"2,49"
same,plasma/blood ratio,B16 murine melanoma; 4 h,"0,79"
same,tumor/blood ratio,B16 murine melanoma; 4 h,"16,17"
same,brain/blood ratio,B16 murine melanoma; 6 h,"3,51"
same,eye/blood ratio,B16 murine melanoma; 6 h,73
same,kidney/blood ratio,B16 murine melanoma; 6 h,"13,04"
same,liver/blood ratio,B16 murine melanoma; 6 h,"6,80"
same,lungs/blood ratio,B16 murine melanoma; 6 h,"14,66"
same,muscle/blood ratio,B16 murine melanoma; 6 h,"1,47"
same,plasma/blood ratio,B16 murine melanoma; 6 h,"0,90"
same,tumor/blood ratio,B16 murine melanoma; 6 h,36
same,"contrast index of melanic tumors vs neighbouring muscles or organs, compared with A",B16 murine melanoma; 6 hours,the majority of these indices are higher for B than for A
same,brain/blood ratio,B16 murine melanoma; 24 h,"0,46"
same,eye/blood ratio,B16 murine melanoma; 24 h,200
same,kidney/blood ratio,B16 murine melanoma; 24 h,"5,24"
same,liver/blood ratio,B16 murine melanoma; 24 h,"7,49"
same,lungs/blood ratio,B16 murine melanoma; 24 h,"1,74"
same,muscle/blood ratio,B16 murine melanoma; 24 h,"0,75"
same,plasma/blood ratio,B16 murine melanoma; 24 h,"0,77"
same,tumor/blood ratio,B16 murine melanoma; 24 h,16
same,concentrations and tumor/blood ratios compared with A,"B16 murine melanoma; 24 hours, melanic melanomas, preliminary",lower than those of A
same,marker of the B16 murine melanoma,"B16 murine melanoma; mouse, in vivo",markers of the B16 murine melanoma
same,tumoral definition,B16 melanoma,very good tumoral definition
